Values quoted from earlier work in patent US20080004343A1, “Stable polymorphs of (E)-N,N-diethyl-2-cyano-3-(3,4-dihydroxy-5-nitrophenyl)acrylamide” (Wockhardt Limited, priority 2006, published 2008).

SMILES	stability under the influence of heat or acids	isomerization to polymorphic form A on standing (standing at room temperature)
CCN(CC)C(=O)C(C#N)=Cc1cc(O)c(O)c([N+](=O)[O-])c1 [(Z)-isomer, N,N-diethyl-2-cyano-3-(3,4-dihydroxy-5-nitrophenyl)acrylamide]	unstable	
CCN(CC)C(=O)/C(C#N)=C/c1cc(O)c(O)c([N+](=O)[O-])c1 [polymorphic form B, (E)-N,N-diethyl-2-cyano-3-(3,4-dihydroxy-5-nitrophenyl)acrylamide]	unstable	isomerizes slowly to the polymorphic form A
